According to patent publication US10538554B2, “Peptides and uses therefor as antiviral agents” (priority 2015, dated 2020):
Bridge positions count the residues as written; N and C are the ends. Square brackets hold non-standard residues; d marks the D form. Peptide text beside a SMILES is read from it.

system: H1N1 A/PR/8/1934; details: A/PR/8/1934, 48 h, 1 μM

| SMILES | % Inhibition |
| --- | --- |
| CC[C@@H](C)[C@H]1NC(=O)[C@@H](Cc2ccccc2)NC(=O)[C@@H]([C@H](C)O)NC(=O)[C@@H](Cc2ccccc2)NC(=O)[C@@H](Cc2c[nH]c3ccccc23)NC(=O)[C@@H](CC(C)C)NC(=O)[C@H](NC(=O)[C@H](CCCCN)NC(=O)[C@H](CCCCN)NC(=O)[C@H](CCCNC(=N)N)NC(=O)[C@@H](N)CCCNC(=N)N)CSSC[C@H](C(=O)O)NC(=O)[C@@H](CC(N)=O)NC1=O [PSP V A10, H-RRKKclwftfinc-OH] (H-RRKK[dC][dL][dW][dF][dT][dF][dI][dN][dC]-OH; disulfide 5-13) | 65% |
| CC[C@@H](C)[C@H]1NC(=O)[C@@H](Cc2ccccc2)NC(=O)[C@@H]([C@H](C)O)NC(=O)[C@@H](Cc2ccccc2)NC(=O)[C@@H](Cc2c[nH]c3ccccc23)NC(=O)[C@@H](C)NC(=O)[C@H](NC(=O)[C@H](CCCCN)NC(=O)[C@H](CCCCN)NC(=O)[C@H](CCCNC(=N)N)NC(=O)[C@@H](N)CCCNC(=N)N)CSSC[C@H](C(=O)O)NC(=O)[C@@H](CC(N)=O)NC1=O [PSP V A1, H-RRKKcawftfinc-OH] (H-RRKK[dC][dA][dW][dF][dT][dF][dI][dN][dC]-OH; disulfide 5-13) | <20% |
| CC[C@@H](C)[C@H]1NC(=O)[C@@H](Cc2ccccc2)NC(=O)[C@@H]([C@H](C)O)NC(=O)[C@@H](Cc2ccccc2)NC(=O)[C@@H](Cc2c[nH]c3ccccc23)NC(=O)[C@@H](Cc2c[nH]c3ccccc23)NC(=O)[C@H](NC(=O)[C@H](CCCCN)NC(=O)[C@H](CCCCN)NC(=O)[C@H](CCCNC(=N)N)NC(=O)[C@@H](N)CCCNC(=N)N)CSSC[C@H](C(=O)O)NC(=O)[C@@H](CC(=O)O)NC1=O [PSP VI A3, H-RRKKcwwftfidc-OH] (H-RRKK[dC][dW][dW][dF][dT][dF][dI][dD][dC]-OH; disulfide 5-13) | 66% |
| CC[C@@H](C)[C@H]1NC(=O)[C@@H](Cc2ccccc2)NC(=O)[C@@H]([C@H](C)O)NC(=O)[C@@H](Cc2ccccc2)NC(=O)[C@@H](Cc2c[nH]c3ccccc23)NC(=O)[C@@H](Cc2c[nH]c3ccccc23)NC(=O)[C@H](NC(=O)[C@H](CCCCN)NC(=O)[C@H](CCCCN)NC(=O)[C@H](CCCNC(=N)N)NC(=O)[C@@H](N)CCCNC(=N)N)CSSC[C@H](C(=O)O)NC(=O)[C@@H]([C@H](C)CC)NC1=O [PSP VI A8, H-RRKKcwwftfiic-OH] (H-RRKK[dC][dW][dW][dF][dT][dF][dI][dI][dC]-OH; disulfide 5-13) | 49% |
| CC[C@@H](C)[C@H]1NC(=O)[C@@H](Cc2ccccc2)NC(=O)[C@@H]([C@H](C)O)NC(=O)[C@@H](Cc2ccccc2)NC(=O)[C@@H](Cc2c[nH]c3ccccc23)NC(=O)[C@@H](CCC(=O)O)NC(=O)[C@H](NC(=O)[C@H](CCCCN)NC(=O)[C@H](CCCCN)NC(=O)[C@H](CCCNC(=N)N)NC(=O)[C@@H](N)CCCNC(=N)N)CSSC[C@H](C(=O)O)NC(=O)[C@@H](CC(N)=O)NC1=O [PSP V A4, H-RRKKcewftfinc-OH] (H-RRKK[dC][dE][dW][dF][dT][dF][dI][dN][dC]-OH; disulfide 5-13) | 27% |
| CC[C@@H](C)[C@H]1NC(=O)[C@@H](Cc2ccccc2)NC(=O)[C@@H]([C@H](C)O)NC(=O)[C@@H](Cc2ccccc2)NC(=O)[C@@H](Cc2c[nH]c3ccccc23)NC(=O)[C@@H](C(C)C)NC(=O)[C@H](NC(=O)[C@H](CCCCN)NC(=O)[C@H](CCCCN)NC(=O)[C@H](CCCNC(=N)N)NC(=O)[C@@H](N)CCCNC(=N)N)CSSC[C@H](C(=O)O)NC(=O)[C@@H](CC(N)=O)NC1=O [PSP V A18, H-RRKKcvwftfinc-OH] (H-RRKK[dC][dV][dW][dF][dT][dF][dI][dN][dC]-OH; disulfide 5-13) | 81% |
| CC[C@@H](C)[C@H]1NC(=O)[C@@H](Cc2ccccc2)NC(=O)[C@@H]([C@H](C)O)NC(=O)[C@@H](Cc2ccccc2)NC(=O)[C@@H](Cc2c[nH]c3ccccc23)NC(=O)[C@@H](Cc2c[nH]c3ccccc23)NC(=O)[C@H](NC(=O)[C@H](CCCCN)NC(=O)[C@H](CCCCN)NC(=O)[C@H](CCCNC(=N)N)NC(=O)[C@@H](N)CCCNC(=N)N)CSSC[C@H](C(=O)O)NC(=O)[C@@H](CCC(=O)O)NC1=O [PSP VI A4, H-RRKKcwwftfiec-OH] (H-RRKK[dC][dW][dW][dF][dT][dF][dI][dE][dC]-OH; disulfide 5-13) | 65% |
| CC[C@@H](C)[C@H]1NC(=O)[C@@H](Cc2ccccc2)NC(=O)[C@@H]([C@H](C)O)NC(=O)[C@@H](Cc2ccccc2)NC(=O)[C@@H](Cc2c[nH]c3ccccc23)NC(=O)[C@@H](Cc2c[nH]c3ccccc23)NC(=O)[C@H](NC(=O)[C@H](CCCCN)NC(=O)[C@H](CCCCN)NC(=O)[C@H](CCCNC(=N)N)NC(=O)[C@@H](N)CCCNC(=N)N)CSSC[C@H](C(=O)O)NC(=O)[C@@H](Cc2c[nH]cn2)NC1=O [PSP VI A7, H-RRKKcwwftfihc-OH] (H-RRKK[dC][dW][dW][dF][dT][dF][dI][dH][dC]-OH; disulfide 5-13) | 38.5% |
| CC[C@@H](C)[C@H]1NC(=O)[C@@H](Cc2ccccc2)NC(=O)[C@@H]([C@H](C)O)NC(=O)[C@@H](Cc2ccccc2)NC(=O)[C@@H](Cc2c[nH]c3ccccc23)NC(=O)[C@@H]([C@H](C)CC)NC(=O)[C@H](NC(=O)[C@H](CCCCN)NC(=O)[C@H](CCCCN)NC(=O)[C@H](CCCNC(=N)N)NC(=O)[C@@H](N)CCCNC(=N)N)CSSC[C@H](C(=O)O)NC(=O)[C@@H](CC(N)=O)NC1=O [PSP V A8, H-RRKKciwftfinc-OH] (H-RRKK[dC][dI][dW][dF][dT][dF][dI][dN][dC]-OH; disulfide 5-13) | 20% |
| CC[C@@H](C)[C@H]1NC(=O)[C@@H](Cc2ccccc2)NC(=O)[C@@H]([C@H](C)O)NC(=O)[C@@H](Cc2ccccc2)NC(=O)[C@@H](Cc2c[nH]c3ccccc23)NC(=O)[C@@H](CCCCN)NC(=O)[C@H](NC(=O)[C@H](CCCCN)NC(=O)[C@H](CCCCN)NC(=O)[C@H](CCCNC(=N)N)NC(=O)[C@@H](N)CCCNC(=N)N)CSSC[C@H](C(=O)O)NC(=O)[C@@H](CC(N)=O)NC1=O [PSP V A9, H-RRKKckwftfinc-OH] (H-RRKK[dC][dK][dW][dF][dT][dF][dI][dN][dC]-OH; disulfide 5-13) | 77% |
| CC[C@@H](C)[C@H]1NC(=O)[C@@H](Cc2ccccc2)NC(=O)[C@@H]([C@H](C)O)NC(=O)[C@@H](Cc2ccccc2)NC(=O)[C@@H](Cc2c[nH]c3ccccc23)NC(=O)[C@@H](CCSC)NC(=O)[C@H](NC(=O)[C@H](CCCCN)NC(=O)[C@H](CCCCN)NC(=O)[C@H](CCCNC(=N)N)NC(=O)[C@@H](N)CCCNC(=N)N)CSSC[C@H](C(=O)O)NC(=O)[C@@H](CC(N)=O)NC1=O [PSP V A11, M-RRKKcmwftfinc-OH] (H-RRKK[dC][dM][dW][dF][dT][dF][dI][dN][dC]-OH; disulfide 5-13; N-terminus assumed) | 92% |
| CC[C@@H](C)[C@H]1NC(=O)[C@@H](Cc2ccccc2)NC(=O)[C@@H]([C@H](C)O)NC(=O)[C@@H](Cc2ccccc2)NC(=O)[C@@H](Cc2c[nH]c3ccccc23)NC(=O)[C@@H](Cc2ccc(O)cc2)NC(=O)[C@H](NC(=O)[C@H](CCCCN)NC(=O)[C@H](CCCCN)NC(=O)[C@H](CCCNC(=N)N)NC(=O)[C@@H](N)CCCNC(=N)N)CSSC[C@H](C(=O)O)NC(=O)[C@@H](CC(N)=O)NC1=O [PSP V A20, H-RRKKcywftfinc-OH] (H-RRKK[dC][dY][dW][dF][dT][dF][dI][dN][dC]-OH; disulfide 5-13) | <20% |
